According to PubChem BioAssay (NCI):
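Assay format: 96-well plates, 48-hour exposure. TGI is the concentration that stops growth completely.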

Columns and labels:
Assay in all cases: NCI-60 cell line screen, 48 h
NCI-H23 lung = system: NCI-H23 lung
SR leukemia = system: SR leukemia
MOLT-4 leukemia = system: MOLT-4 leukemia
A498 renal = system: A498 renal
HCC-2998 colon = system: HCC-2998 colon
SNB-19 CNS = system: SNB-19 CNS
SK-OV-3 ovarian = system: SK-OV-3 ovarian
MALME-3M melanoma = system: MALME-3M melanoma
SF-295 CNS = system: SF-295 CNS
SK-MEL-28 melanoma = system: SK-MEL-28 melanoma
RPMI-8226 leukemia = system: RPMI-8226 leukemia
UACC-257 melanoma = system: UACC-257 melanoma
CCRF-CEM leukemia = system: CCRF-CEM leukemia
LOX IMVI melanoma = system: LOX IMVI melanoma
HOP-62 NSCLC = system: HOP-62 NSCLC
SN12C renal = system: SN12C renal
786-0 renal = system: 786-0 renal
OVCAR-3 ovarian = system: OVCAR-3 ovarian
NCI-H522 lung = system: NCI-H522 lung

Compound | TGI (NCI-H23 lung) [µM] | TGI (SR leukemia) [µM] | TGI (MOLT-4 leukemia) [µM] | TGI (A498 renal) [µM] | TGI (HCC-2998 colon) [µM] | TGI (SNB-19 CNS) [µM] | TGI (SK-OV-3 ovarian) [µM] | TGI (MALME-3M melanoma) [µM] | TGI (SF-295 CNS) [µM] | TGI (SK-MEL-28 melanoma) [µM] | TGI (RPMI-8226 leukemia) [µM] | TGI (UACC-257 melanoma) [µM] | TGI (CCRF-CEM leukemia) [µM] | TGI (LOX IMVI melanoma) [µM] | TGI (HOP-62 NSCLC) [µM] | TGI (SN12C renal) [µM] | TGI (786-0 renal) [µM] | TGI (OVCAR-3 ovarian) [µM] | TGI (NCI-H522 lung) [µM]
CC(C)c1cccc(C(C)C)c1NC(=O)C(=O)C1CCC2=C(Sc3ccccc3N2)C1=O (centres undefined) | > 100 | > 100 | > 100 | > 100 | > 100 | > 100 | > 100 | > 100 | > 100 | > 100 | > 100 | > 100 | > 100 | > 100 | > 100 | > 100 | > 100 | > 100 | 
COC(=O)/C(=N\NC(N)=O)C(C#N)c1ccccc1 (centres undefined) | > 100 |  | > 100 | > 100 | > 100 | > 100 | > 100 | > 100 | > 100 | > 100 | > 100 | > 100 | > 100 | > 100 | > 100 | > 100 | > 100 | > 100 | > 100
COC(=O)N/N=C(\C)CC(=O)Nc1cccc([N+](=O)[O-])c1 | > 100 |  | > 100 |  | > 100 |  | > 100 | > 100 | > 100 | > 100 | > 100 | > 100 | > 100 | > 100 | > 100 |  | > 100 | > 100 | > 100
CCCCCCCC(=O)OC[C@H](C[As](=O)(O)O)OC(=O)CCCCCCC | 28.2 | 22.8 | 14.1 | 25.3 | 27.8 | 27.3 | 29 | 25.3 | 27.5 | 26.5 | 32.4 | 27.2 | 8.8 |  | 33.1 | 21.7 | 26.7 |  | 4.07
Cn1ccc(=NS(=O)(=O)c2ccccc2)cc1 | > 100 |  | > 100 | > 100 | > 100 | > 100 | > 100 | > 100 | > 100 | > 100 | > 100 | > 100 | > 100 | > 100 | > 100 |  | > 100 | > 100 | > 100
CS(=O)(=O)NNS(=O)(=O)c1ccc(F)cc1 | > 100 | > 100 | > 100 | > 100 | > 100 | > 100 |  | > 100 | > 100 |  | > 100 | > 100 | > 100 | > 100 | > 100 | > 100 | > 100 | > 100 | > 100
CN/N=C(\C)C(CN1CCCCC1)C(C1=C(O)c2ccccc2OC1)c1ccccc1 (centres undefined) | > 100 | > 100 | > 100 |  | > 100 | > 100 | > 100 | > 100 | > 100 | > 100 | > 100 | > 100 | > 100 | > 100 | > 100 | > 100 | > 100 | > 100 | > 100
O=c1c(C(c2ccc([N+](=O)[O-])cc2)c2c(O)c3ccccc3n(-c3ccccc3)c2=O)c(O)c2ccccc2n1-c1ccccc1 | 34.3 | 62.7 | 41.9 |  | 29.1 | > 100 | > 100 | 28.8 | 33.3 | 66.5 | 57.1 |  | 13.4 | 27.2 | 37.4 | > 100 | 26.9 | 70.5 | 86.6
O=C(O[C@H]1[C@@H]2C=CO[C@@H](OC3OC(CO)C(O)C(O)C3O)[C@@H]2[C@@]2(CO)O[C@@H]12)c1ccc(O)c(O)c1 (some centres undefined) | > 100 |  | > 100 | > 100 | > 100 | > 100 | > 100 | > 100 | > 100 | > 100 | > 100 | > 100 | > 100 | > 100 | > 100 | > 100 | > 100 | > 100 | > 100
Nc1ccn(CCOC(c2ccccc2)P(=O)(O)O)c(=O)n1 (centres undefined) | > 100 | > 100 | > 100 | > 100 | > 100 | > 100 | > 100 | > 100 | > 100 | > 100 |  | > 100 | > 100 | > 100 |  | > 100 | > 100 | > 100 | > 100
CSc1ccc2c(cc1=O)C(NC(=O)c1ccccc1)CCc1cc(O)c(O)c(O)c1-2 (centres undefined) | 24.7 |  | 54.2 | 56.9 | 36.2 | 27.1 | > 100 | > 100 | > 100 | > 100 | 62.6 | > 100 | > 100 | 30 | 57.8 | 44.7 | > 100 | 5.91 | 35.6
Cc1cc2c(=O)c(C)n[nH]c2c(C#N)c1C | > 100 | > 100 | > 100 |  | > 100 | > 100 | > 100 | > 100 | > 100 | > 100 | > 100 | > 100 | > 100 | > 100 | > 100 | > 100 | > 100 | > 100 | 
N#Cc1ccccc1NC(=O)C(=O)C(C(=O)c1ccncc1)C1OC(=O)c2ccccc21 (centres undefined) | > 100 | > 100 |  | > 100 | > 100 | > 100 | > 100 | > 100 | > 100 | > 100 |  | > 100 | > 100 | > 100 | > 100 | > 100 | > 100 | > 100 | > 100
